These results are taken from patent US10597364B2, “Anthelmintic compounds, compositions and method of using thereof” (priority 2015, dated 2020).

One data set has as its system Haemonchus contortus. Nature of the data set: Method A: Haemonchus contortus L1 larval development/motility screen in microtitre plate. The class given is cell-based. As to conditions: 96 h, read-out: motility inhibition.
For data set [1] the following is noted: human, Caco-2, pH 6.5.
Experimental: Permeability of Compounds.
An in vitro model utilizing Caco-2/TC7 cells is employed to assess the permeability characteristics of new chemical entities (NCEs).
The permeability studies were performed under standard conditions in the apical to basolateral (A→B) direction with a pH gradient and a BSA gradient (standard apical medium (0.5% BSA at pH 6.5)/standard basal medium (5% BSA at pH 7.4)); conditions that most closely reflect the conditions in the in vivo situation. Samples were deproteinized by the addition of 400 μl acetonitrile to 200 μl sample, followed by a 20-minute centrifugation at 1730 g. Compound solubilisation: compound solutions at final concentrations of 20 μM were prepared following dilutions of stock solutions (starting from 10 mM in DMSO) in HBSS. Final concentration of DMSO was adjusted to 1%. Analytical conditions: Supernatants recovered following centrifugation were analysed by LC/MS/MS using a reverse phase column and the mobile phases delivered at 0.3 ml/minute in a gradient: water (A) and acetonitrile (B) (each with 0.1% formic acid).
Every experiment (n) represents the mean of 3 filters per experiment.
Data set [2] deals with microfilaria of Dirofilaria immitis. Nature of the data set: Method C: microfilaria of Dirofilaria immitis motility screen. Particulars: read-out: inhibition of the microfilaria's motility. The class given is cell-based.

Like-named read-outs stand apart in the source and are kept apart here.

One may read the inhibition as the change of the read-out against control, counted positive when it falls. One may read the Papp A→B as the apparent permeability from the apical to the basolateral side of a cell layer. A higher Papp A→B goes with fast passage.

In the case of `O=C(Oc1ccc(F)cc1)N1CCN(c2cncc(O[C@H]3CC[C@H](Nc4ccc([N+](=O)[O-])c(C(F)(F)F)c4)CC3)c2)CC1` [Compound 11], the inhibition at 5 µM with Haemonchus contortus was no less than 90%. In data set [1], the apical-to-basolateral permeability (Papp A→B) at 20 μM is 0.55 ×10⁻⁶ cm/s.
The like results for `CCCCC(=O)N1CCN(c2cc(O[C@H]3CC[C@H](Nc4ccc([N+](=O)[O-])c(C(F)(F)F)c4)CC3)ccn2)CC1` [Compound 10] were, in that order, no less than 90% and 5.81 ×10⁻⁶ cm/s.
Turning to `O=C(CCC(F)(F)F)N1CCN(c2cc(O[C@H]3CC[C@H](Nc4ccc([N+](=O)[O-])c(C(F)(F)F)c4)CC3)ccn2)CC1` [Compound 24], the inhibition at 5 µM in the data set with Haemonchus contortus is no less than 90%. In addition, the inhibition at 10 µM in data set [2] (24 h) was no less than 90%. This compound registered a Papp A→B at 20 μM in data set [1] of 4.46 ×10⁻⁶ cm/s.
`CC(C)(C)CC(=O)N1CCN(c2cncc(O[C@H]3CC[C@H](Nc4ccc([N+](=O)[O-])c(C(F)(F)F)c4)CC3)c2)CC1` [Compound 35]: the inhibition at 5 µM in the data set with Haemonchus contortus is no less than 90%. Also, the inhibition at 5 ppm in data set [2] (24 h) was no less than 90%. In data set [1], this compound showed an apical-to-basolateral permeability (Papp A→B) at 20 μM of 4.99 ×10⁻⁶ cm/s.
Turning to `O=C(CC1CCC1)N1CCN(c2cc(O[C@H]3CC[C@H](Nc4ccc([N+](=O)[O-])c(C(F)(F)F)c4)CC3)ccn2)CC1` [Compound 8], the inhibition at 5 µM in the data set with Haemonchus contortus was no less than 90%. Also, the inhibition at 10 µM in data set [2] (24 h) was no less than 90%. Further, the Papp A→B at 20 μM in data set [1] was 4.01 ×10⁻⁶ cm/s.
In data set [1], `O=[N+]([O-])c1ccc(N[C@H]2CC[C@H](Oc3ccc(N4CCN(c5ccc6cc(C(F)(F)F)ccc6n5)CC4)nc3)CC2)cc1C(F)(F)F` [Compound 102] returned a Papp A→B at 20 μM of 0.01 ×10⁻⁶ cm/s.
`O=C(CC1CCCC1)N1CCN(c2cc(O[C@H]3CC[C@H](Nc4ccc([N+](=O)[O-])c(C(F)(F)F)c4)CC3)ccn2)CC1` [Compound 3, 2-Cyclopentyl-1-[4-(4-[[4-[[4-nitro-3-(trifluoromethyl)phenyl]amino]cyclohexyl]oxy]pyridin-2-yl)piperazin-1-yl]ethan-1-one]: the inhibition at 10 µM in data set [2] (24 h) was no less than 90%. This compound also yielded a Papp A→B at 20 μM in data set [1] of 2.64 ×10⁻⁶ cm/s.
For the compound `O=[N+]([O-])c1ccc(N[C@H]2CC[C@H](Oc3cncc(N4CCN(CC5CCCC5)CC4)c3)CC2)cc1C(F)(F)F` [Compound 27], the inhibition at 5 µM in the data set on Haemonchus contortus was no less than 90%. The inhibition at 10 µM in data set [2] (24 h) is no less than 90%. Besides, the Papp A→B at 20 μM in data set [1] was 2.33 ×10⁻⁶ cm/s.
Regarding `O=[N+]([O-])c1ccc(N[C@H]2CC[C@H](Oc3ccnc(N4CCN(CC5CCCC5)CC4)c3)CC2)cc1C(F)(F)F` [Compound 37, 4-nitro-N-[4-([2-[4-(cyclopentylmethyl)piperazin-1-yl]pyridin-4-yl]oxy)cyclohexyl]-3-(trifluoromethyl)], the inhibition at 5 µM in the data set on Haemonchus contortus was no less than 90%. In addition, the inhibition at 10 µM in data set [2] (24 h) is no less than 90%. The same compound returned a Papp A→B at 20 μM in data set [1] of 2.55 ×10⁻⁶ cm/s.
For `CCCOC(=O)N1CCN(c2ccnc(O[C@H]3CC[C@H](Nc4ccc([N+](=O)[O-])c(C(F)(F)F)c4)CC3)c2)CC1` [Compound 36], in the data set on Haemonchus contortus, the inhibition at 5 µM is no less than 90%. Also, in data set [2] (24 h), the inhibition at 10 µM is no less than 90%. Further, the Papp A→B at 20 μM in data set [1] came out at 2.41 ×10⁻⁶ cm/s.
Consider `O=[N+]([O-])c1ccc(N[C@H]2CC[C@H](Oc3cncc(N4CCN(Cc5ccc(F)cc5)CC4)c3)CC2)cc1C(F)(F)F` [Compound 4, 4-nitro-N-[4-[(5-[4-[(4-fluorophenyl)methyl]piperazin-1-yl]pyridin-3-yl)oxy]cyclohexyl]-3-(trifluoromethyl)aniline], for which, in data set [2] (24 h), the inhibition at 1 µM is no less than 90% and the inhibition at 10 µM was no less than 90%. The same compound yielded a Papp A→B at 20 μM in data set [1] of 1.84 ×10⁻⁶ cm/s.
In the case of `O=[N+]([O-])c1ccc(N[C@H]2CC[C@H](Oc3cncc(N4CCN(Cc5ccc(C(F)(F)F)cc5)CC4)c3)CC2)cc1C(F)(F)F` [Compound 18], in the data set on Haemonchus contortus, the inhibition at 5 µM is no less than 90%. The inhibition at 10 µM in data set [2] (24 h) is no less than 90%. This compound showed an apparent permeability from apical to basolateral (Papp A→B) at 20 μM in data set [1] of 0.53 ×10⁻⁶ cm/s.
`O=[N+]([O-])c1ccc(N[C@H]2CC[C@H](Oc3ccc(N4CCN(C/C=C/c5ccc(C(F)(F)F)cc5)CC4)nc3)CC2)cc1C(F)(F)F` [Compound 80]: the inhibition at 5 µM in the data set with Haemonchus contortus is no less than 90%. For the same compound, in data set [2] (24 h), the inhibition at 1 ppm was no less than 90% and the inhibition at 5 ppm is no less than 90%.
As for `CCC(=O)N1CCN(c2cc(O[C@H]3CC[C@H](Nc4ccc([N+](=O)[O-])c(C(F)(F)F)c4)CC3)ccn2)CC1` [Compound 60], the inhibition at 5 µM in the data set on Haemonchus contortus was no less than 90%. The inhibition at 10 µM in data set [2] (10 μM, 24 hours) is no less than 90%.
For the compound `COC(=O)N1CCN(c2cc(O[C@H]3CC[C@H](Nc4ccc([N+](=O)[O-])c(C(F)(F)F)c4)CC3)ccn2)CC1` [Compound 75], the inhibition at 5 µM in the data set on Haemonchus contortus is no less than 90%. For the same compound, the inhibition at 10 µM in data set [2] (10 μM, 24 hours) is no less than 90%.
For `CC(C)(C)OC(=O)N1CCN(c2cncc(O[C@H]3CC[C@H](Nc4ccc([N+](=O)[O-])c(C(F)(F)F)c4)CC3)c2)CC1` [Compound 15], the inhibition at 5 µM in the data set with Haemonchus contortus is no less than 90%. In data set [1], this compound registered a Papp A→B at 20 μM of 2.07 ×10⁻⁶ cm/s.
Regarding `CC(C)(C)OC(=O)N1CCN(c2ccc(O[C@H]3CC[C@H](Nc4ccc([N+](=O)[O-])c(C(F)(F)F)c4)CC3)cn2)CC1` [Compound 83], in the data set on Haemonchus contortus, the inhibition at 5 µM is no less than 90%. Moreover, in data set [2] (24 h), the inhibition at 5 ppm was no less than 90%.
For the compound `CCCC(=O)N1CCN(c2cncc(O[C@H]3CC[C@H](Nc4ccc([N+](=O)[O-])c(C(F)(F)F)c4)CC3)c2)CC1` [Compound 31], the inhibition at 5 µM with Haemonchus contortus is no less than 90%. In data set [1], the Papp A→B at 20 μM came out at 10.7 ×10⁻⁶ cm/s.
For `O=C(N1CCN(c2ccnc(O[C@H]3CC[C@H](Nc4ccc([N+](=O)[O-])c(C(F)(F)F)c4)CC3)c2)CC1)C(F)(F)F` [Compound 58], the inhibition at 5 µM with Haemonchus contortus was no less than 90%. In addition, the inhibition at 5 ppm in data set [2] (5 ppm, 24 hours) is no less than 90%.
Take `O=[N+]([O-])c1ccc(N[C@H]2CC[C@H](Oc3ccnc(N4CCN(C/C=C/c5ccc(C(F)(F)F)cc5)CC4)c3)CC2)cc1C(F)(F)F` [Compound 76]: the inhibition at 5 µM with Haemonchus contortus was no less than 90%. For the same compound, the inhibition at 5 ppm in data set [2] (24 h) is no less than 90%.
Turning to `O=C(CC1CCCC1)N1CCN(c2cc(O[C@H]3CC[C@H](Nc4ccc(S(=O)(=O)C(F)(F)F)cc4)CC3)ccn2)CC1` [Compound 188], in the data set on Haemonchus contortus, the inhibition at 5 µM is no less than 90%. Also, the inhibition at 10 µM in data set [2] (24 h) was no less than 90%.
As to `O=C(OC1CCCC1)N1CCN(c2ccnc(O[C@H]3CC[C@H](Nc4ccc([N+](=O)[O-])c(C(F)(F)F)c4)CC3)c2)CC1` [Compound 9, cyclopentyl 4-[2-[(4-[[4-nitro-3-(trifluoromethyl)phenyl]amino]cyclohexyl)oxy]pyridin-4-yl]piperazine-1-carboxylate], the inhibition at 5 µM with Haemonchus contortus is no less than 90%. This compound showed an apical-to-basolateral permeability (Papp A→B) at 20 μM in data set [1] of 1.08 ×10⁻⁶ cm/s.
On to `CCCOC(=O)N1CCN(c2cc(O[C@H]3CC[C@H](Nc4ccc([N+](=O)[O-])c(C(F)(F)F)c4)CC3)ccn2)CC1` [Compound 26], for which, in the data set with Haemonchus contortus, the inhibition at 5 µM was no less than 90%. In addition, in data set [2] (24 h), the inhibition at 10 µM is no less than 90%.
As to `O=C(NC1CCCC1)N1CCN(c2ccnc(O[C@H]3CC[C@H](Nc4ccc([N+](=O)[O-])c(C(F)(F)F)c4)CC3)c2)CC1` [Compound 69], the inhibition at 5 µM in the data set with Haemonchus contortus is no less than 90%. For the same compound, the inhibition at 10 µM in data set [2] (24 h) was no less than 90%.
Turning to `O=C(CC1CCCC1)N1CCN(c2ccnc(O[C@H]3CC[C@H](Nc4ccc([N+](=O)[O-])c(C(F)(F)F)c4)CC3)c2)CC1` [Compound 5, 2-cyclopentyl-1-(4-(2-(4-(4-nitro-3-(trifluoromethyl)phenylamino)cyclohexyloxy)pyridin-4-yl)piperazin-1-yl)ethanone], in the data set with Haemonchus contortus, the inhibition at 5 µM was no less than 90%. Further, the inhibition at 5 ppm in data set [2] (24 h) is no less than 90%.
Consider `O=[N+]([O-])c1ccc(N[C@H]2CC[C@H](Oc3cc(N4CCN(C(=S)Nc5ccc(F)cc5)CC4)ccn3)CC2)cc1C(F)(F)F` [Compound 89], for which the inhibition at 5 µM with Haemonchus contortus is no less than 90%. For the same compound, the inhibition at 5 ppm in data set [2] (24 h) was no less than 90%.
